This note sets out measurements from US20190337889A1, “COMPOSITIONS AND METHODS OF REGULATING CANCER RELATED DISORDERS AND DISEASES” (ONCO THERAPIES LLC, priority 2016, published 2019).

Molecules are shown by their SMILES.

The subject of one assay is tumor cells. Description: Effect on the growth of a variety of tumor cells (summary of Table 1). The assay is classed as cell-based. The following applies: IC50 value of less than 100 μM was considered active. The protocol:
(§1) Maintenance and Treatment of Cell Lines. Human HepG2 hepatocarcinoma cells and human U87MG glioma cells (ATCC, Manassas, Va.) were maintained in EMEM medium supplemented with 10% FBS (Hyclone, Logan, Utah). The human 1321N1 astrocytoma cells (European Collection of Cell Cultures, Sigma-Aldrich) were cultured in Dulbecco's modified Eagle's medium supplemented with 10% FBS and 2 mM L-glutamine. Human prostate carcinoma cell line PC3 was cultured in F-12K medium (Life Technologies) supplemented 10% FBS. Human lung carcinoma cell line A549 was cultured in DMEM+2 mM glutamine+10% FBS. ER positive, estrogen independent for growth MCF7/LCC9 cell line was cultured in IMEM (Biofluids) supplemented with 5% charcoal stripped calf serum. Medulloblastoma cell line DAOY was cultured in Eagle's MEM supplemented with 10% FBS. All cell lines except MDA-MB-321 were cultured at 37° C. in 5% CO2, and the medium was replaced every 2-3 days. MDA-MB-231 was grown in Leibovitz's L-15 medium with 10% FBS without CO2 supplementation.
Cell death assay. The extent of cell death and toxicity of the compounds was tested by XTT assay. The cells were plated in their respective media in 96-well plates. […] The plate was incubated for 4 hours at 37° C. and then the absorbance was read at a wavelength of 490 nm.
The effect of NT015 and NT016 on the growth of a variety of tumor cells was evaluated. […]

Assay [1] concerns HepG2 cells. The assay is described as follows: Caspase assay (Caspase-Glo 3/7) on HepG2 cells. The assay is classed as cell-based, human. The following applies: 48 hours after addition, 100 uM, n=4. As to the method:
Caspase Assay. Caspase assay was conducted by using the Promega Caspase-Glo 3/7 kit. 100 ul of caspase-Glo 3/7 reagent was added to each well of a white walled 96-well plate containing 100 ul of blank, negative control cells or treated cells in culture medium. The contents of the wells were mixed gently and incubated at room temperature for 30 minutes to 3 hours. The luminescence of each sample was read in a luminometer.

The next assay concerns MCF7/LCC9 cell line. Description: XTT cell death assay, MCF7/LCC9 cells. To be noted: Homo sapiens, # = 200 uM not tested, read-out: LCC-9: concentration with effect on cancer cells. The assay is classed as cell-based. As to the method: as §1
(§2) Cell death assay. The extent of cell death and toxicity of the compounds was tested by XTT assay. The cells were plated in their respective media in 96-well plates. The compounds and were added in dilutions ranging from 0.01 nM to 200 μM and for control DMSO to 1% was used. […] For XTT assay first the medium in the wells was replaced with 200 μs of fresh phenol-red free medium. Then 50 μls of XTT solution with PMS was added to the wells. The XTT solution was made adding 0.02% phenazine methosulfate (Sigma-Aldrich #P9625) to 1 mg/ml XTT sodium salt made up in phenol-red free RPMI (Sigma-Aldrich #X4636). The plate was incubated for 4 hours at 37° C. and then the absorbance was read at a wavelength of 490 nm.
On the technique in general: Tetrazolium assays rely on reduction of a dye to a coloured formazan, in cell work by metabolically active cells.

Assay [2] concerns HepG2 cells. The assay is described as follows: XTT cell death assay, HepG2 hepatocarcinoma cells. The assay is classed as cell-based, human. The following applies: Homo sapiens, HepG2, *Greater than 50% inhibition, dilutions 0.01 nM to 200 μM, usually 24 or 48 hours, read-out: HepG2* (liver cancer): concentration with greater than 50% inhibition. The protocol:
as §1, with “FBS.” for “FBS. All cell lines except MDA-MB-321 were cultured at 37° C. in 5% CO2, and the medium was replaced every 2-3 days. MDA-MB-231 was grown in Leibovitz's L-15 medium with 10% FBS without CO2 supplementation.”
as §2, with “#X4636).” for “#X4636). The plate was incubated for 4 hours at 37° C. and then the absorbance was read at a wavelength of 490 nm.”

A further assay relates to PC3 cells. Description: XTT cell death assay, PC3 prostate carcinoma cells. The assay is classed as cell-based. The following applies: Homo sapiens, PC-3, # = 200 uM not tested, read-out: PC3: concentration with effect on cancer cells. The protocol:
as §1, §2

A further assay relates to A549. The assay is described as follows: XTT cell death assay, A549 lung carcinoma cells. The assay is classed as cell-based. To be noted: Homo sapiens, # = 200 uM not tested, read-out: A549: concentration with effect on cancer cells. As to the method: as §1, §2
A further assay relates to DAOY. The assay is described as follows: XTT cell death assay, DAOY medulloblastoma cells. The assay is classed as cell-based. To be noted: Homo sapiens, # = 200 uM not tested, read-out: DAOY: concentration with effect on cancer cells. The protocol: as §1, §2
For another assay, the system named is A549 xenograft. The assay is described as follows: Zebrafish xenograft assay with implanted A549 cells. The assay is classed as in vivo. To be noted: zebrafish embryos, 100 uM, 4 days after implantation, n=10 to 15. As to the method: Zebrafish xenograft assay. Zebrafish embryos with implanted A549 cells were imaged within 6 hours of cell injection (day 0) and treated with compounds. At 4 days post injection (day 4) the embryos were imaged again. The area of fluorescence due to the labeled cells was measured using Image J at day 0 (area 0) and day 4 (area 4). The change in area was calculated by subtracting area 0 from area 4 (=d area). D area was then normalized for the size of the initial tumor by dividing d area by area 0 (=d area/area 0).

The next assay has as its system MDA-MB-231. Description: XTT cell death assay, MDA-MB-231 cells. The assay is classed as cell-based. To be noted: Homo sapiens, # = 200 uM not tested, read-out: MDA-MB-231: concentration with effect on cancer cells. As to the method:
as §1, §2

On to `CC(N)Cc1ccc2ccccc2c1` (centres unmarked) [NT015, 1-(naphthalen-2-yl)propan-2-amine], for which the “inhibition of liver, lung, breast, prostate and CNS cancer cell growth” value with tumor cells is “potent inhibitors”. Besides, the “caspase activity (fluorescence ratio to untreated cells)” value with HepG2 cells [1] is “increase in caspase activity”.
Turning to `CC(Cc1cccc2ccccc12)NCCc1ccc(O)cc1` (centres unmarked) [NT016, 4-(2-((1-(naphthalen-1-yl)propan-2-yl)amino)ethyl)phenol], the minimal effective concentration with MCF7/LCC9 cell line was found to be 100 µM; with HepG2 cells [2] it was 100 µM; with PC3 cells it was 200 µM; in the assay with A549 it was 100 µM; in the assay with DAOY it was 100 µM. Moreover, the “inhibition of liver, lung, breast, prostate and CNS cancer cell growth” value in the assay with tumor cells is on record as “potent inhibitors”. Further, the “area of A549 xenograft implant” value in the assay with A549 xenograft was “efficacy of reducing the area of xenograft significantly”.
Consider `CC(Cc1ccc2ccccc2c1)NCC(O)c1ccc(O)cc1` (centres unmarked) [NT026, 4-(1-hydroxy-2-((1-(naphthalen-2-yl)propan-2-yl)amino)ethyl)phenol], for which the minimal effective concentration with MCF7/LCC9 cell line, in the assay with MDA-MB-231, with HepG2 cells [2], with PC3 cells, with A549 and in the assay on DAOY was 100 µM each time. The “area of A549 xenograft implant” value in the assay on A549 xenograft is reported as “efficacy of reducing the area of xenograft significantly”.
As for `CC(Cc1cccc2ccccc12)NCC(O)c1ccc(O)cc1` (centres unmarked) [NT027, 4-(1-hydroxy-2-((1-(naphthalen-1-yl)propan-2-yl)amino)ethyl)phenol], the minimal effective concentration in the assay with MCF7/LCC9 cell line and in the assay with MDA-MB-231 was 100 µM in each case. Also, the “caspase activity (fluorescence ratio to untreated cells)” value with HepG2 cells [1] is “increase in caspase activity”. In addition, the “area of A549 xenograft implant” value in the assay with A549 xenograft was “efficacy of reducing the area of xenograft significantly”.
As for `CC(Cc1cccc2ccccc12)NCC(O)c1ccccc1O` (centres unmarked) [NT029, 2-(1-hydroxy-2-((1-(naphthalen-1-yl)propan-2-yl)amino)ethyl)phenol], the minimal effective concentration was 100 µM in the assay on MCF7/LCC9 cell line; 100 µM in the assay with HepG2 cells [2]; 200 µM with PC3 cells; 100 µM with A549; 100 µM with DAOY. In addition, the “area of A549 xenograft implant” value in the assay with A549 xenograft is reported as “efficacy of reducing the area of xenograft significantly”.
